In patent US20080293696A1, “2-Aminoarylcarboxamides Useful as Cancer Chemotherapeutic Agents” (Bayer Pharmaceuticals Corporation, priority 2004, published 2008):
Counter-ions that a name gives are not always drawn.

What follows are compounds tested on PAKT/PKB (p-(S473) AKT) in H209 small cell lung carcinoma cells stimulated with Stem Cell Factor (assay: PAKT/PKB Cytoblot Assay with H209 cells (SCF-stimulated p-(S473) AKT)). Details: Homo sapiens, NCI-H209, compound 1 hour, SCF 25 ng/mL 5 minutes, group: between 500 nM and 1 μM (units in value).
Format: cell-based
Method in brief: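 H209 SCLC cells kept overnight in RPMI with 0.1% BSA were pretreated 1 h at 37 °C with compound (0.01–10 μM final), then stimulated with SCF 25 ng/mL for 5 min. After formaldehyde/methanol fixation, p-(S473) AKT was detected in-cell with HRP secondary and ECL chemiluminescence, and IC50 was derived.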

| IC50 | Compound |
| --- | --- |
| 500 to 1000 nM | O=C(NCCc1ccc(O)cc1)c1cc(CNc2ccccc2C(=O)Nc2ccc3c(c2)OC(F)(F)O3)ccn1 [Example 129, 4-{[(2-{[(2,2-difluoro-1,3-benzodioxol-5-yl)amino]carbonyl}phenyl)amino]methyl}-N-[2-(4-hydroxyphenyl)ethyl]pyridine-2-carboxamide] |
| 500 to 1000 nM | CN(C)C(=O)c1cc(CNc2ccccc2C(=O)Nc2ccc3c(c2)OC(F)(F)O3)ccn1 [Example 80, 4-{[(2-{[(2,2-Difluoro-1,3-benzodioxol-5-yl)amino]carbonyl}phenyl)amino]methyl}-N,N-dimethylpyridine-2-carboxamide] |

Second part, the compound before the results:

| Compound | IC50 |
| --- | --- |
| CN(C)c1nccc(CNc2ccccc2C(=O)Nc2ccc3c(c2)OC(F)(F)C(F)(F)O3)n1 [Example 50, 2-({[2-(dimethylamino)pyrimidin-4-yl]methyl}amino)-N-(2,2,3,3-tetrafluoro-2,3-dihydro-1,4-benzodioxin-6-yl)benzamide] | 500 to 1000 nM |
| CCNC(=O)c1cc(CNc2cc(F)c(F)cc2C(=O)Nc2ccc3c(c2)OC(F)(F)C(F)(F)O3)ccn1 [Example 43, 4-{[(4,5-difluoro-2-{[(2,2,3,3-tetrafluoro-2,3-dihydro-1,4-benzodioxin-6-yl)amino]carbonyl}phenyl)amino]methyl}-N-ethylpyridine-2-carboxamide] | 500 to 1000 nM |
| O=C(NCc1ccccc1)Nc1cc(CNc2ccccc2C(=O)Nc2ccc3c(c2)OC(F)(F)O3)ccn1 [Example 172, 2-{[(2-{[(benzylamino)carbonyl]amino}pyridin-4-yl)methyl]amino]-N-(2,2-difluoro-1,3-benzodioxol-5-yl)benzamide] | 500 to 1000 nM |

Same assay, conditions: Homo sapiens, NCI-H209, compound 1 hour, SCF 25 ng/mL 5 minutes, group: between 1 and 3 μM

| IC50 | Compound |
| --- | --- |
| 1000 to 3000 nM | O=C(NCCc1c[nH]c2ccccc12)c1cc(CNc2ccccc2C(=O)Nc2ccc3c(c2)OC(F)(F)O3)ccn1 [Example 102, 4-{[(2-{[(2,2-difluoro-1,3-benzodioxol-5-yl)amino]carbonyl}phenyl)amino]methyl}-N-[2-(1H-indol-3-yl)ethyl]pyridine-2-carboxamide] |
| 1000 to 3000 nM | CSCC[C@@H](CO)NC(=O)c1cc(CNc2ccccc2C(=O)Nc2ccc3c(c2)OC(F)(F)O3)ccn1 [Example 127, 4-{[(2-{[(2,2-difluoro-1,3-benzodioxol-5-yl)amino]carbonyl}phenyl)amino]methyl}-N-[(1S)-1-(hydroxymethyl)-3-(methylthio)propyl]pyridine-2-carboxamide] |
| 1000 to 3000 nM | O=C(O)CCNC(=O)c1cc(CNc2ccccc2C(=O)Nc2ccc3c(c2)OC(F)(F)O3)ccn1 [Example 99, N-[(4-{[(2-{[(2,2-difluoro-1,3-benzodioxol-5-yl)amino]carbonyl}phenyl)amino]methyl}pyridin-2-yl)carbonyl]beta-alanine] |
| 1000 to 3000 nM | CC(CN(C)C)NC(=O)c1cc(CNc2ccccc2C(=O)Nc2ccc3c(c2)OC(F)(F)O3)ccn1 (stereo not drawn) [Example 116, 4-{[(2-{[(2,2-difluoro-1,3-benzodioxol-5-yl)amino]carbonyl}phenyl)amino]methyl}-N-[2-(dimethylamino)-1-methylethyl]pyridine-2-carboxamide] |

Same assay, conditions: Homo sapiens, NCI-H209, compound 1 hour, SCF 25 ng/mL 5 minutes, group: less than 500 nM

| IC50 | Compound |
| --- | --- |
| < 500 nM | CCCNC(=O)Nc1cc(CNc2ccccc2C(=O)Nc2ccc3c(c2)OC(F)(F)O3)ccn1 [Example 169, N-(2,2-difluoro-1,3-benzodioxol-5-yl)-2-{[(2-{[(propylamino)carbonyl]amino}pyridin-4-yl)methyl]amino}benzamide] |
| < 500 nM | CC1CCCCN1CCCNC(=O)c1cc(CNc2ccccc2C(=O)Nc2ccc3c(c2)OC(F)(F)O3)ccn1 (stereo not drawn) [Example 119, 4-{[(2-{[(2,2-difluoro-1,3-benzodioxol-5-yl)amino]carbonyl}phenyl)amino]methyl}-N-[3-(2-methylpiperidin-1-yl)propyl]pyridine-2-carboxamide] |
| < 500 nM | O=C(Nc1ccc2c(c1)OC(F)(F)O2)c1ccccc1NCc1ccnc(NCCCN2CCOCC2)c1 [Example 144, N-(2,2-difluoro-1,3-benzodioxol-5-yl)-2-[({2-[(3-morpholin-4-ylpropyl)amino]pyridin-4-yl}methyl)amino]benzamidebis(trifluoroacetate)] |
| < 500 nM | CN1CCCC1CCNC(=O)c1cc(CNc2ccccc2C(=O)Nc2ccc3c(c2)OC(F)(F)O3)ccn1 (stereo not drawn) [Example 117, 4-{[(2-{[(2,2-difluoro-1,3-benzodioxol-5-yl)amino]carbonyl}phenyl)amino]methyl}-N-[2-(1-methylpyrrolidin-2-yl)ethyl]pyridine-2-carboxamide] |
| < 500 nM | CCOCCCNC(=O)c1cc(CNc2ccccc2C(=O)Nc2ccc3c(c2)OC(F)(F)O3)ccn1 [Example 110, 4-{[(2-{[(2,2-difluoro-1,3-benzodioxol-5-yl)amino]carbonyl}phenyl)amino]methyl}-N-(3-ethoxypropyl)pyridine-2-carboxamide] |
| < 500 nM | CCN(CC)CCCNC(=O)c1cc(CNc2ccccc2C(=O)Nc2ccc3c(c2)OC(F)(F)O3)ccn1 [Example 87, N-[3-(diethylamino)propyl]-4-{[(2-{[(2,2-difluoro-1,3-benzodioxol-5-yl)amino]carbonyl}phenyl)amino]methyl}pyridine-2-carboxamide] |
| < 500 nM | CCOC(=O)c1cc(CNc2ccccc2C(=O)Nc2ccc3c(c2)OC(F)(F)O3)ccn1 [Example 82, Ethyl 4-{[(2-{[(2,2-difluoro-1,3-benzodioxol-5-yl)amino]carbonyl}phenyl)amino]methyl}pyridine-2-carboxylate] |
| < 500 nM | O=C(NCCCn1ccnc1)c1cc(CNc2ccccc2C(=O)Nc2ccc3c(c2)OC(F)(F)O3)ccn1 [Example 96, 4-{[(2-{[(2,2-difluoro-1,3-benzodioxol-5-yl)amino]carbonyl}phenyl)amino]methyl}-N-[3-(1H-imidazol-1-yl)propyl]pyridine-2-carboxamide] |
| < 500 nM | CN1CCCC1CCNc1cc(CNc2ccccc2C(=O)Nc2ccc3c(c2)OC(F)(F)O3)ccn1 (stereo not drawn) [Example 145, N-(2,2-difluoro-1,3-benzodioxol-5-yl)-2-{[(2-{[2-(1-methylpyrrolidin-2-yl)ethyl]amino}pyridin-4-yl)methyl]amino}benzamidebis(trifluoroacetate)] |
| < 500 nM | CCN(CC)CCNC(=O)c1cc(CNc2ccccc2C(=O)Nc2ccc3c(c2)OC(F)(F)O3)ccn1 [Example 88, N-[2-(diethylamino)ethyl]-4-{[(2{[(2,2-difluoro-1,3-benzodioxol-5-yl)amino]carbonyl}phenyl)amino]methyl}pyridine-2-carboxamide] |

More lines, now with the values behind:

| Compound | IC50 |
| --- | --- |
| O=C(Nc1ccc2c(c1)OC(F)(F)C(F)(F)O2)c1cccnc1NCc1ccncc1 [Example 12, 2-[(pyridin-4-ylmethyl)amino]-N-(2,2,3,3-tetrafluoro-2,3-dihydro-1,4-benzodioxin-6-yl)nicotinamide] | < 500 nM |
| COc1cccc(NCc2ccncc2)c1C(=O)Nc1ccc2c(c1)C(F)(F)OC(F)(F)O2 [Example 10, 2-methoxy-6-[(pyridin-4-ylmethyl)amino]-N-(2,2,4,4-tetrafluoro-4H-1,3-benzodioxin-6-yl)benzamide] | < 500 nM |
| O=C(Nc1ccc2c(c1)OC(F)(F)O2)c1ccccc1NCc1ccnc(NCC(O)CO)c1 (stereo not drawn) [Example 149, N-(2,2-difluoro-1,3-benzodioxol-5-yl)-2-[({2-[(2,3-dihydroxypropyl)amino]pyridin-4-yl}methyl)amino]benzamidetrifluoroacetate (salt)] | < 500 nM |
| CNC(=O)c1cc(CNc2ccc(F)cc2C(=O)Nc2ccc3c(c2)OC(F)(F)C(F)(F)O3)ccn1 [Example 34, 4-{[(4-fluoro-2-{[(2,2,3,3-tetrafluoro-2,3-dihydro-1,4-benzodioxin-6-yl)amino]carbonyl}phenyl)amino]methyl}-N-methylpyridine-2-carboxamide] | < 500 nM |
| O=C(Nc1ccc2c(c1)OC(F)(F)C(F)(F)O2)c1cc(F)ccc1NCc1ccncc1 [Example 19, 5-fluoro-2-[(pyridin-4-ylmethyl)amino]-N-(2,2,3,3-tetrafluoro-2,3-dihydro-1,4-benzodioxin-6-yl)benzamide] | < 500 nM |
| CC(=O)OCC(=O)Nc1cc(CNc2ccccc2C(=O)Nc2ccc3c(c2)OC(F)(F)O3)ccn1 [Example 156, 2-[(4-{[(2-{[(2,2-difluoro-1,3-benzodioxol-5-yl)amino]carbonyl}phenyl)amino]methyl}pyridin-2-yl)aminol-2-oxoethyl acetate] | < 500 nM |
| O=C(Nc1ccc2c(c1)OC(F)(F)C(F)(F)O2)c1cnccc1NCc1ccncc1 [Example 14, 4-[(pyridin-4-ylmethyl)amino]-N-(2,2,3,3-tetrafluoro-2,3-dihydro-1,4-benzodioxin-6-yl)nicotinamide] | < 500 nM |
| N#Cc1cc(CNc2cc(F)ccc2C(=O)Nc2ccc3c(c2)OC(F)(F)O3)ccn1 [Example 29, 2-{[(2-cyanopyridin-4-yl)methyl]amino}-N-(2,2-difluoro-1,3-benzodioxol-5-yl)-4-fluorobenzamide] | < 500 nM |
